The experiment has as its system L1210 leukemia ip in BDF1 mice, survival T/C. Description: NCI In Vivo Anticancer Drug Screen. Data for tumor model L1210 Leukemia (intraperitoneal) in B6D2F1 (BDF1) mice. Conditions: endpoint: mean survival time, higher = longer survival. The gist of the method: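 Transplantable tumor model; survival measured in treated vs vehicle control mice. Value = treated/control.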

The mark [1] stands for this setting: dose: 25.0 mg/kg/injection, schedule: Q04DX002 (ip), vehicle: Klucel (hydroxypropylcellulose) (HPC).
The mark [2] stands for this setting: dose: 50.0 mg/kg/injection, schedule: Q04DX002 (ip), vehicle: Klucel (hydroxypropylcellulose) (HPC).
Where [3] appears, read: dose: 100.0 mg/kg/injection, schedule: Q04DX002 (ip), vehicle: Klucel (hydroxypropylcellulose) (HPC).
The mark [4] stands for this setting: dose: 100.0 mg/kg/injection, schedule: Q01DX009 (ip), vehicle: Klucel (hydroxypropylcellulose) (HPC).
The mark [5] stands for this setting: dose: 100.0 mg/kg/injection, schedule: Q04DX003 (ip), vehicle: Klucel (hydroxypropylcellulose) (HPC).
Where [6] appears, read: dose: 200.0 mg/kg/injection, schedule: Q01DX009 (ip), vehicle: Klucel (hydroxypropylcellulose) (HPC).
[7] abbreviates: dose: 200.0 mg/kg/injection, schedule: Q04DX003 (ip), vehicle: Klucel (hydroxypropylcellulose) (HPC).
[8] abbreviates: dose: 400.0 mg/kg/injection, schedule: Q01DX009 (ip), vehicle: Klucel (hydroxypropylcellulose) (HPC).
Setting [9] is: dose: 400.0 mg/kg/injection, schedule: Q04DX003 (ip), vehicle: Klucel (hydroxypropylcellulose) (HPC).
The mark [10] stands for this setting: dose: 100.0 mg/kg/injection, schedule: Q04DX003 (ip), vehicle: saline with Tween-80.
The mark [11] stands for this setting: dose: 200.0 mg/kg/injection, schedule: Q04DX003 (ip), vehicle: saline with Tween-80.
The mark [12] stands for this setting: dose: 400.0 mg/kg/injection, schedule: Q04DX003 (ip), vehicle: saline with Tween-80.

The structures appear in SMILES notation. Inconclusive results and toxic doses are left out.

As for `COC(=O)c1[nH]c(=O)[nH]c(=O)c1F`, the T/C is 103 % of control (dose: 1.0 mg/kg/injection, schedule: Q01DX009 (ip), vehicle: saline with Tween-80); 115 % of control (dose: 1.0 mg/kg/injection, schedule: Q01DX Z (ip), vehicle: methylcellulose (MC)); 110 % of control (dose: 2.0 mg/kg/injection, schedule: Q01DX009 (ip), vehicle: saline with Tween-80); 118 % of control (dose: 2.0 mg/kg/injection, schedule: Q01DX Z (ip), vehicle: carboxymethylcellulose (CMC)); 124 % of control (dose: 3.0 mg/kg/injection, schedule: Q01DX Z (ip), vehicle: carboxymethylcellulose (CMC)); 151 % of control (dose: 3.0 mg/kg/injection, schedule: Q01DX Z (ip), vehicle: methylcellulose (MC)). Besides, the T/C is, setting by setting: (dose: 4.0 mg/kg/injection, schedule: Q01DX009 (ip), vehicle: saline with Tween-80) 123 % of control; (dose: 5.0 mg/kg/injection, schedule: Q01DX Z (ip), vehicle: carboxymethylcellulose (CMC)) 185 % of control; (dose: 6.0 mg/kg/injection, schedule: Q01DX Z (ip), vehicle: methylcellulose (MC)) 172 % of control; (dose: 8.0 mg/kg/injection, schedule: Q01DX009 (ip), vehicle: saline with Tween-80) 167 % of control; (dose: 8.0 mg/kg/injection, schedule: Q01DX Z (ip), vehicle: carboxymethylcellulose (CMC)) 150 % of control; (dose: 17.0 mg/kg/injection, schedule: Q01DX Z (ip), vehicle: carboxymethylcellulose (CMC)) 97 % of control. For the same compound, the T/C (dose: 24.0 mg/kg/injection, schedule: Q01DX Z (ip), vehicle: methylcellulose (MC)) is 114 % of control; the T/C (dose: 25.0 mg/kg/injection, schedule: Q01DX Z (ip), vehicle: carboxymethylcellulose (CMC)) was 120 % of control; the T/C (dose: 32.0 mg/kg/injection, schedule: Q01DX009 (ip), vehicle: saline with Tween-80) is 92 % of control; the T/C (dose: 32.0 mg/kg/injection, schedule: Q04DX003 (ip), vehicle: saline with Tween-80) was 157 % of control; the T/C (dose: 38.0 mg/kg/injection, schedule: Q01DX Z (ip), vehicle: carboxymethylcellulose (CMC)) is 101 % of control; the T/C (dose: 48.0 mg/kg/injection, schedule: Q01DX Z (ip), vehicle: methylcellulose (MC)) is 114 % of control. The T/C is 215 % of control (dose: 64.0 mg/kg/injection, schedule: Q04DX003 (ip), vehicle: saline with Tween-80) and 91 % of control (dose: 90.0 mg/kg/injection, schedule: Q01DX Z (ip), vehicle: methylcellulose (MC)).

Regarding `CC(=O)c1cccc2ccccc12`, the T/C is 103 % of control under setting [1], 100 % of control under setting [2] and 103 % of control under setting [3].

Regarding `O=C(CCNNC(=O)c1ccncc1)NCc1ccccc1`, the T/C is, setting by setting: (dose: 25.0 mg/kg/injection, schedule: Q01DX009 (ip), vehicle: Klucel (hydroxypropylcellulose) (HPC)) 101 % of control; (dose: 25.0 mg/kg/injection, schedule: Q04DX003 (ip), vehicle: Klucel (hydroxypropylcellulose) (HPC)) 101 % of control; (dose: 50.0 mg/kg/injection, schedule: Q01DX009 (ip), vehicle: Klucel (hydroxypropylcellulose) (HPC)) 110 % of control; (dose: 50.0 mg/kg/injection, schedule: Q04DX003 (ip), vehicle: Klucel (hydroxypropylcellulose) (HPC)) 114 % of control; under setting [4], 97 % of control; under setting [5], 95 % of control. For the same compound, the T/C by setting is: under setting [6], 101 % of control; under setting [7], 86 % of control; under setting [8], 101 % of control; under setting [9], 95 % of control.

For the compound `O=[N+]([O-])c1ccc(Cl)c2ncccc12`, the T/C is, setting by setting: under setting [5], 102 % of control; under setting [7], 98 % of control; under setting [9], 102 % of control.

Take `O=C1c2ccccc2S(=O)(=O)N1CCCBr`: the T/C under setting [4] was 89 % of control, the T/C under setting [6] was 89 % of control and the T/C under setting [8] is 89 % of control.

Regarding `O=C1/C(=C/c2ccc(O)c(O)c2)CCc2ccccc21`, the T/C (dose: 30.0 mg/kg/injection, schedule: Q01DX015 (ip), vehicle: saline) is 97 % of control; the T/C (dose: 60.0 mg/kg/injection, schedule: Q01DX015 (ip), vehicle: saline) is 94 % of control; the T/C (dose: 120.0 mg/kg/injection, schedule: Q01DX015 (ip), vehicle: saline) is 94 % of control; the T/C (dose: 240.0 mg/kg/injection, schedule: Q01DX015 (ip), vehicle: saline) was 100 % of control.

Consider `CC(=O)Nc1cccc2ccccc12`, for which the T/C reads like this: under setting [10], 97 % of control; under setting [11], 101 % of control; under setting [12], 100 % of control.

Take `CCOC(=O)C1C2=C(C(N)=O)C(=O)C(C(=O)O2)C1c1ccc(O)cc1` (stereo not drawn): the T/C was 91 % of control (dose: 100.0 mg/kg/injection, schedule: Q01DX001 (ip), vehicle: other) and 97 % of control (dose: 200.0 mg/kg/injection, schedule: Q01DX001 (ip), vehicle: other).

With `CCOC(=O)C1(C(=O)OCC)COC(=O)C1`, the T/C is, setting by setting: (dose: 50.0 mg/kg/injection, schedule: Q01DX009 (ip), vehicle: acetone) 94 % of control; (dose: 100.0 mg/kg/injection, schedule: Q01DX009 (ip), vehicle: acetone) 97 % of control; (dose: 100.0 mg/kg/injection, schedule: Q04DX003 (ip), vehicle: acetone) 107 % of control; (dose: 200.0 mg/kg/injection, schedule: Q01DX009 (ip), vehicle: acetone) 100 % of control; (dose: 200.0 mg/kg/injection, schedule: Q04DX003 (ip), vehicle: acetone) 96 % of control; (dose: 400.0 mg/kg/injection, schedule: Q04DX003 (ip), vehicle: acetone) 98 % of control.

Consider `NC(=O)CCC(NC(=O)OCc1ccccc1)C(=O)NCC(=O)O` (stereo not drawn), for which the T/C is, setting by setting: under setting [1], 95 % of control; under setting [2], 92 % of control; under setting [3], 100 % of control.

On to `CN1CCCC(OC(=O)N(C)C)C1` (stereo not drawn), for which the T/C is, setting by setting: (dose: 100.0 mg/kg/injection, schedule: Q04DX003 (ip), vehicle: saline) 98 % of control; (dose: 200.0 mg/kg/injection, schedule: Q04DX003 (ip), vehicle: saline) 98 % of control; (dose: 400.0 mg/kg/injection, schedule: Q04DX003 (ip), vehicle: saline) 98 % of control.

On to `O=C(Nc1ccc(Br)cc1)Nc1ccccc1F`, for which the T/C by setting is: under setting [4], 98 % of control; under setting [6], 93 % of control; under setting [8], 98 % of control.

In the case of `Nc1nc(=S)c2ncn(C3OC(COC(=O)c4ccccc4)C(OC(=O)c4ccccc4)C3OC(=O)c3ccccc3)c2[nH]1` (stereo not drawn), the T/C is, setting by setting: (dose: 0.1 mg/kg/injection, schedule: Q01DX009 (ip), vehicle: saline) 104 % of control; (dose: 0.3 mg/kg/injection, schedule: Q01DX009 (ip), vehicle: saline) 118 % of control; (dose: 0.6 mg/kg/injection, schedule: Q01DX009 (ip), vehicle: saline) 118 % of control; (dose: 5.0 mg/kg/injection, schedule: Q01DX009 (ip), vehicle: saline) 159 % of control; (dose: 29.0 mg/kg/injection, schedule: Q01DX Z (ip), vehicle: methylcellulose (MC)) 116 % of control; (dose: 45.0 mg/kg/injection, schedule: Q01DX009 (ip), vehicle: saline) 164 % of control. Also, the T/C reads like this: (dose: 100.0 mg/kg/injection, schedule: Q01DX Z (ip), vehicle: methylcellulose (MC)) 153 % of control; (dose: 175.0 mg/kg/injection, schedule: Q01DX009 (ip), vehicle: saline) 98 % of control; (dose: 265.0 mg/kg/injection, schedule: Q01DX001 (ip), vehicle: saline) 118 % of control; (dose: 400.0 mg/kg/injection, schedule: Q01DX001 (ip), vehicle: saline) 86 % of control.

Regarding `Nc1cc2c3c(cccc3c1Br)C(=O)N(Cc1ccccc1)C2=O`, under setting [9], the T/C is 88 % of control.

Consider `Clc1ccc(CN2CCCN(C3CCCCC3)C2C2CCC=CO2)cc1` (stereo not drawn), for which the T/C (dose: 100.0 mg/kg/injection, schedule: Q01DX001 (ip), vehicle: saline) was 96 % of control.

In the case of `O=S(=O)(Cl)OC(CCl)C(OS(=O)(=O)Cl)C(OS(=O)(=O)Cl)C(CCl)OS(=O)(=O)Cl` (stereo not drawn), the T/C is, setting by setting: under setting [10], 102 % of control; under setting [11], 97 % of control; under setting [12], 114 % of control.

The values are drawn from PubChem BioAssay AID248 (DTP/NCI, 2004).
